Measurements as given in PubChem BioAssay AID1963874 (Molecular Pharmacology Branch, DTP, NCI, 2024).

System: 253994-281-T-J1-PDC KRAS-mutant spheroids with HUVEC/MSC, viability
Assay: Anticancer human tumor 253994-281-T-J1-PDC patient-derived colorectal carcinoma cell line growth inhibition [KRAS2]
Details: for IC50: curve of first compound; for viability, T/C: stronger effect = lower value
How it was run: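 KRAS-mutant tumor cells were grown as spheroids with HUVEC endothelial cells and human MSCs as stroma. Targeted agents were tested alone and with KRAS pathway inhibitors. Doses started at or near clinical Cmax, or 10 microM, descending half-log.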

[1] = second compound 0.1 µM, first compound 0.0316 µM
[2] = second compound 0.1 µM, first compound 0.1 µM
[3] = second compound 0.1 µM, first compound 0.316 µM
[4] = second compound 0.1 µM, first compound 1 µM
[5] = second compound 0.1 µM, first compound 3.16 µM
[6] = second compound 0.1 µM, first compound 10 µM
[7] = second compound 0.316 µM, first compound 0.0316 µM
[8] = second compound 0.316 µM, first compound 0.1 µM
[9] = second compound 0.316 µM, first compound 0.316 µM
[10] = second compound 0.316 µM, first compound 1 µM
[11] = second compound 0.316 µM, first compound 3.16 µM
[12] = second compound 0.316 µM, first compound 10 µM
[13] = second compound 1 µM, first compound 0.0316 µM
[14] = second compound 1 µM, first compound 0.1 µM
[15] = second compound 1 µM, first compound 0.316 µM
[16] = second compound 1 µM, first compound 1 µM
[17] = second compound 1 µM, first compound 3.16 µM
[18] = second compound 1 µM, first compound 10 µM
[19] = second compound 3.16 µM, first compound 0.0316 µM
[20] = second compound 3.16 µM, first compound 0.1 µM
[21] = second compound 3.16 µM, first compound 0.316 µM
[22] = second compound 3.16 µM, first compound 1 µM
[23] = second compound 3.16 µM, first compound 3.16 µM
[24] = second compound 3.16 µM, first compound 10 µM
[25] = second compound 10 µM, first compound 0.0316 µM
[26] = second compound 10 µM, first compound 0.1 µM
[27] = second compound 10 µM, first compound 0.316 µM
[28] = second compound 10 µM, first compound 1 µM
[29] = second compound 10 µM, first compound 3.16 µM
[30] = second compound 10 µM, first compound 10 µM
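Note: spheroids exposed to agents for seven days before readout.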
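Throughout, for viability, T/C: percent of DMSO vehicle control viability.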

SMILES: COC(=O)c1ccc2c(C(=Nc3ccc(N(C)C(=O)CN4CCN(C)CC4)cc3)c3ccccc3)c(O)[nH]c2c1 + CNCc1ccccc1-c1csc(C(C)Nc2nc(C)nc3cc(OC)c(OC)cc23)c1
- IC50 (second compound 0.1 µM): 6.67 µM
- IC50 (second compound 0.316 µM): 4.12 µM
- IC50 (second compound 1 µM): 4.52 µM
- IC50 (second compound 3.16 µM): < 0.0316 µM
- IC50 (second compound 10 µM): < 0.0316 µM
- viability, T/C [1]: 90.3%
- viability, T/C [2]: 97.4%
- viability, T/C [3]: 73.2%
- viability, T/C [4]: 89.3%
- viability, T/C [5]: 77%
- viability, T/C [6]: 35.2%
- viability, T/C [7]: 99.1%
- viability, T/C [8]: 74.1%
- viability, T/C [9]: 80.8%
- viability, T/C [10]: 83.8%
- viability, T/C [11]: 61.7%
- viability, T/C [12]: 10.7%
- viability, T/C [13]: 82.6%
- viability, T/C [14]: 75%
- viability, T/C [15]: 77.3%
- viability, T/C [16]: 70.8%
- viability, T/C [17]: 72.3%
- viability, T/C [18]: 0.33%
- viability, T/C [19]: 20.7%
- viability, T/C [20]: 23.6%
- viability, T/C [21]: 3.7%
- viability, T/C [22]: 1.12%
- viability, T/C [23]: 0.36%
- viability, T/C [24]: 0.17%
- viability, T/C [25]: 0.14%
- viability, T/C [26]: 0.16%
- viability, T/C [27]: 0.15%
- viability, T/C [28]: 0.22%
- viability, T/C [29]: 0.12%
- viability, T/C [30]: 0.17%

SMILES: O=C(c1cc(Cc2n[nH]c(=O)c3ccccc23)ccc1F)N1CCN(C(=O)C2CC2)CC1 + CNCc1ccccc1-c1csc(C(C)Nc2nc(C)nc3cc(OC)c(OC)cc23)c1
- IC50 (second compound 0.1 µM): > 10 µM
- IC50 (second compound 0.316 µM): > 10 µM
- IC50 (second compound 1 µM): > 10 µM
- IC50 (second compound 3.16 µM): < 0.0316 µM
- IC50 (second compound 10 µM): < 0.0316 µM
- viability, T/C [1]: 101%
- viability, T/C [2]: 85.3%
- viability, T/C [3]: 99.8%
- viability, T/C [4]: 94.3%
- viability, T/C [5]: 95.2%
- viability, T/C [6]: 96.2%
- viability, T/C [7]: 103%
- viability, T/C [8]: 98.5%
- viability, T/C [9]: 90.5%
- viability, T/C [10]: 92.7%
- viability, T/C [11]: 99.5%
- viability, T/C [12]: 97.5%
- viability, T/C [13]: 96.4%
- viability, T/C [14]: 119%
- viability, T/C [15]: 93.8%
- viability, T/C [16]: 82.9%
- viability, T/C [17]: 75.7%
- viability, T/C [18]: 78.2%
- viability, T/C [19]: 19.2%
- viability, T/C [20]: 45%
- viability, T/C [21]: 12.3%
- viability, T/C [22]: 35.3%
- viability, T/C [23]: 16.5%
- viability, T/C [24]: 11%
- viability, T/C [25]: 0.17%
- viability, T/C [26]: 0.16%
- viability, T/C [27]: 0.17%
- viability, T/C [28]: 0.19%
- viability, T/C [29]: 0.17%
- viability, T/C [30]: 0.24%
